Where a name gives a salt, the structure may show the parent alone. Read-outs that look alike come from different tables or passages of the source.
What was measured:
DENV-2 [1] = experiment: Virus yield inhibition assay, DENV-2 in Huh7 cells, titers by plaque assay; settings: for Maximum effect on DENV replication (in words) / Emax: Huh7, DENV-2 MOI 0.1, 48 h; for Emax / EC50: Dengue virus; for Emax: DENV2, Huh-7, 48 h
PPARα = molecular target: T1, PPARα (Homo sapiens, UniProt Q07869); settings: antagonist; cited from earlier work
T1 sequence (Q07869 1-468): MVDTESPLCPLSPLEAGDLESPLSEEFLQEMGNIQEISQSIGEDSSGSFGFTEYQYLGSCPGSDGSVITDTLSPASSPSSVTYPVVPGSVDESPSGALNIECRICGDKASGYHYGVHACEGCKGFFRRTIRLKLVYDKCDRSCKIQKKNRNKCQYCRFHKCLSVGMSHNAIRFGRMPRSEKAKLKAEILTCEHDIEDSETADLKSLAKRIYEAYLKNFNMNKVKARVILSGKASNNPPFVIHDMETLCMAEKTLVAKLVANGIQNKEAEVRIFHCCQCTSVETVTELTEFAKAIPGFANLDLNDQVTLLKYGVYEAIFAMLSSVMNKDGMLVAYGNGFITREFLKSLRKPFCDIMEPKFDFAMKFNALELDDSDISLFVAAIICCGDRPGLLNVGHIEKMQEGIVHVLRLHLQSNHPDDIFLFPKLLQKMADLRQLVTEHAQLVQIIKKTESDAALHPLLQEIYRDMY

PPARγ = molecular target: T2, PPARγ (Homo sapiens, UniProt P37231); settings: antagonist; cited from earlier work
T2 sequence (P37231 1-505): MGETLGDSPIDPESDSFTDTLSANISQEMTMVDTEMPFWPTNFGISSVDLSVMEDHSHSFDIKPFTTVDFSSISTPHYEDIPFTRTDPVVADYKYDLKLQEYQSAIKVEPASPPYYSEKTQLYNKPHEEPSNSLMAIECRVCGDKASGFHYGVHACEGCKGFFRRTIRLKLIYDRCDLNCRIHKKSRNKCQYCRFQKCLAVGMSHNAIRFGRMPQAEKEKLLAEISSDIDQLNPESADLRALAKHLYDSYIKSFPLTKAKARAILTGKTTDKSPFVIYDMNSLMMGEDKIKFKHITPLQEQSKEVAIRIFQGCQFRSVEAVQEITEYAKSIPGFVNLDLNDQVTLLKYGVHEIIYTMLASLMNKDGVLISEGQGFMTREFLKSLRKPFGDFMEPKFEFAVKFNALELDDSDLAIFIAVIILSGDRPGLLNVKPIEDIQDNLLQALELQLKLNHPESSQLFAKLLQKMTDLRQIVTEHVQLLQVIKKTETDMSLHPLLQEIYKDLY

DENV-3 = experiment: Virus yield inhibition assay, DENV-3 in Huh7 cells; format: cell-based, Dengue virus; settings: 200 μM, Huh7, 48 h
From the text: (§1) Given the only 62-67% of amino acid conservation among DENV serotypes (Kyle & Harris 2008), the different serotypes might not be equally dependent on the same host factors for their replication.

DENV-4 = experiment: Virus yield inhibition assay, DENV-4 in Huh7 cells; format: cell-based, Dengue virus; settings: 200 μM, Huh7, 48 h
From the text: as §1

DENV-1 = experiment: Virus yield inhibition assay, DENV-1 in Huh7 cells; format: cell-based, Dengue virus; settings: 200 μM, Huh7, 48 h
From the text: as §1

DENVTCP = experiment: Time-of-addition with single-round DENVTCP particles in Huh7 cells, Rluc; settings: 200 μM, readout 48 h
primary human monocytes = experiment: Viability of primary human monocytes (ATP content); format: cell-based; settings: 48 h
DENV-2 [2] = experiment: Virus yield inhibition, DENV-2 in primary human monocytes, plaque assay; format: cell-based; settings: Dengue virus, DENV2, Monocyte
Description: Primary human monocytes isolated from peripheral blood from healthy donors were infected with DENV-2 at an MOI of 10 PFU/cell in the presence of the drug.
Peripheral blood samples from three healthy donors were collected in EDTA tubes. The blood was then diluted with 2 volumes of DPBS without calcium and without magnesium (PAN Biotech) and carefully layered onto Ficoll-hypaque (PAN Biotech). The blood was then subjected to centrifugation at 700 g, without brakes. The interphase cells containing the peripheral blood mononuclear cells (PBMCs) were aspirated, transferred to a clean tube and washed three times with DPBS. CD14+ monocytes were isolated using MicroBeads conjugated to monoclonal anti-human CD14 antibodies (MACS Miltenyi Biotec) according to the manufacturer's instructions, with some modifications. Briefly, 10 μl of Microbeads were incubated with 1×10^7 cells for 15 min at 4° C. After washing with DPBS magnetic separation of CD14+ monocytes was performed using an autoMACS Separator. The purity of the isolated monocytes (89.8% for donor 1, 94.8% for donor 2 and 97.7% for donor 3) was corroborated by FACS staining using anti-CD14 antibodies.
Identification of host factors using RNAi may depend to a large extent on the cellular system chosen to perform the screen, what argues for the need of testing the selected hit candidates in cellular systems more representative of the infection in nature. […] The impact of the drug on virus production was assessed by plaque assay 48 h after infection.

DENV(GND)sg-R2A = format: cell-based, Dengue virus; settings: 200 μM, initial 10 h of transfection
[3] = Cell viability of Huh7 cells (ATP content / F-Luc activity); settings: human
DENVsg reporter replicon = experiment: microbe, parasite or virus in culture; format: cell-based, Dengue virus
[4] = concentration per compound as in Table 1
[5] = read-out: Maximum effect on DENV replication (inhibition), inhibition of virus production, concentration per compound as in Table 1 column 'Concentration used (FIG. 3B)'

CN1C2CCC1CC(OC(=O)C(CO)c1ccccc1)C2 (stereo not drawn) [Atropine, α-(Hydroxymethyl)benzeneacetic acid 8-methyl-8-azabicyclo[3.2.1]oct-3-yl ester]
Maximum effect on DENV replication (in words) (DENV-2 [1]; [4]): inactive

Cl.N=C(N)CCl [2CA, 2-chloroethanimidamide hydrochloride]
inhibition on virus production (DENV-2 [1]; 50 μM, Huh7, 48 h): 77%

COC(=O)c1sccc1S(=O)(=O)Nc1ccc(Nc2ccccc2)cc1OC [GSK0660, 3-(((2-Methoxy-4-(phenylamino)phenyl)amino)sulfonyl)-2-thio-phenecarboxylic acid methyl ester]
Emax (DENV-2 [1]; [5]): ~62% | IC50 (PPARα): > 10 µM | IC50 (PPARγ): > 10 µM

Cc1cc(SCc2sc(-c3ccc(C(F)(F)F)c(F)c3)nc2C)ccc1OCC(=O)O [GW0742]
Emax (DENV-2 [1]; read-out: Maximum effect on DENV replication (enhancement), enhancement of virus production, concentration per compound as in Table 1): ~48%

COc1ccc(NC(=O)C2C[C@H](C)CC[C@H]2C(C)C)cc1 (stereo partly drawn) [WS-12, (2S,5R)-2-Isopropyl-N-(4-methoxyphenyl)-5-methylcyclohexane carboximide]
Maximum effect on DENV replication (in words) (DENV-2 [1]; [4]): inactive

C=C(C)C1CNC(C(=O)O)C1CC(=O)O (centres unmarked) [Kainic acid monohydrate, 2-Carboxy-3-carboxymethyl-4-isopropenylpyrrolidine]
Maximum effect on DENV replication (in words) (DENV-2 [1]; [4]): inactive

O=C(NCc1ccc2c(c1)OCO2)c1c(Cl)cccc1Cl [Alda-1, N-(1,3-Benzodioxol-5-ylmethyl)-2,6-dichlorobenzamide]
Maximum effect on DENV replication (in words) (DENV-2 [1]; [4]): inactive

C[N+](C)(C)CC#CCN1CCCC1=O.[I-] [Oxotremorine M, N,N,N,-trimethyl-4-(2-oxo-1-pyrrolidinyl)-2-butyn-1-ammonium iodide]
Maximum effect on DENV replication (in words) (DENV-2 [1]; [4]): inactive

COc1ccccc1CNCCCCCCNCCCCCCCCNCCCCCCNCc1ccccc1OC [Methoctramine hydrate, N,N,′-bis[6-[[(2-Methoxyphenyl)methyl]amino]hexyl]-1,8-octane diaminetetrahydrochloride hydrate]
Maximum effect on DENV replication (in words) (DENV-2 [1]; [4]): inactive

Oc1cc2c(cc1O)CN(C(=S)NCCc1ccc(Cl)cc1)CCC2 [Capsazepine, N-[2-(4-Chlorophenyl)ethyl]-1,3,4,5-tetrahydro-7,8-dihydroxy-2H-2-benzazepine-2-carbothioamide]
Maximum effect on DENV replication (in words) (DENV-2 [1]; [4]): inactive

CC1CCC(C(C)C)C(O)C1 (centres unmarked) [Menthol, 2-Isopropyl-5-methylcyclohexanol]
Maximum effect on DENV replication (in words) (DENV-2 [1]; [4]): inactive

O=c1c(-c2ccc(O)cc2)coc2cc(O[C@@H]3O[C@H](CO)[C@@H](O)[C@H](O)[C@H]3O)ccc12 [Daidzin, Daidzein-7-O-β-D-glucopyranoside]
Maximum effect on DENV replication (in words) (DENV-2 [1]; [4]): inactive

N=C(CCl)NCCC[C@H](NC(=O)c1ccccc1)C(N)=O [Cl-amidine, N-α-benzoyl-N5-(2-chloro-1-iminoethyl)-L-ornithine amide]
reduction on virus production (DENV-3): 10 fold | reduction on virus production (DENV-2 [1]; 200 μM, Huh7, 48 h): 10 fold | Emax (DENV-2 [1]; [5]): 92.7% | EC50 (DENV-2 [1]; DENV2, Huh-7, Huh7 transduced with shNT#2): 17.1 µM | EC50 (DENV-2 [1]; DENV2, Huh-7, Huh7 transduced with shPADI4#4 (PADI4 silenced)): 1.18 µM | EC50 (DENV-2 [1]; DENV2, Huh-7, read-out: EC50 ± SD): 215 ± 19 µM | EC50 (DENV-2 [1]; DENV2, Huh-7, read-out: EC50 ± SD, Huh7-Empty control cell line): 19.3 ± 2.36 µM | EC50 (DENV-2 [1]; DENV2, Huh-7, read-out: EC50 ± SD, Parental Huh7, 2 h pretreatment, 48 h): 16.1 µM | inhibition of virus titers (DENV-2 [1]; highest concentration tested, Huh7): up to 100 fold | reduction on virus production (DENV-4): 10 fold | reduction on virus production (DENV-1): 10 fold | time of addition after infection up to which inhibitory effect remained significant (DENVTCP): up to 8 h | cytotoxicity for primary human monocytes (primary human monocytes): not cytotoxic | EC50 (DENV-2 [2]; 48 h, monocytes of Donor 1, MOI 10, 48 h, read-out: EC50): 16.9 µM | EC50 (DENV-2 [2]; 48 h, monocytes of Donor 2, MOI 10, 48 h, read-out: EC50): 24.6 µM | EC50 (DENV-2 [2]; 48 h, monocytes of Donor 3, MOI 10, 48 h, read-out: EC50): 22.9 µM | EC50 (DENV-2 [2]; three donors, read-out: EC50 values among different donors): 17 to 25 µM | luciferase activity vs DMSO-treated cells (DENV(GND)sg-R2A): no difference in luciferase activity | CC50 at 48 h [3]: > 1000 µM | luciferase activity vs DMSO-treated cells (DENVsg reporter replicon; 200 μM, initial 10 h of transfection): no difference in luciferase activity | EC50 (DENVsg reporter replicon; Dengue virus, Huh-7, 48 h, read-out: EC50 (R-Luc activity)): 16.5 ± 2.49 µM
